# Measured values reported in PubChem BioAssay (NCI).
#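 These data come from cells grown in 96-well plates and exposed to compound for 48 hours at five concentrations. The concentration for 50% growth inhibition is given as GI50. TGI: total growth inhibition.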
# Tested on: TK-10 renal
# Assay: growth of human tumour cells (NCI), 48 h
Structure (SMILES),GI50 [µM],TGI [µM]
C#CCOc1cccc(-c2ncc3cc(NC(=O)CCl)ccc3n2)c1,2.6,4.85
COc1ccc(OC)c2c1[nH]c(=O)c1c3ccccc3cn21,2.01,3.76
CSc1nc(=O)n(CCC#N)nc1SC,,> 100
COc1cc(Nc2ncccc2C(=O)NCc2cn(Cc3cccc(Oc4ccccc4)c3)nn2)cc(OC)c1,51.6,> 100
Nc1ccc([N+](=O)[O-])cc1N=C/C=C/c1ccccc1,33.3,> 100
Cc1cc(Nc2ccc(NC(=O)c3ccc(Nc4ccnc5ccccc45)cc3)cc2)nc(N)n1,19.8,> 100
COc1cc(-c2oc(=O)ccc2C#Cc2ccccn2)cc(OC)c1OC,4.98,> 100
COc1cccc(C2CC(C)(O)Oc3cc4c(cc32)OCO4)c1O (stereo not drawn),,> 100
COC(=O)C1c2cc3c(cc2C(OC2OC(C)C(OC)C(C)(OC)C2OC)CC1(C)O)C(=O)c1c(O)cc2c(c1C3=O)OC1OC2(C)C(O)C([N+](C)(C)[O-])C1O (stereo not drawn),,> 100
CNCc1ccccc1-c1csc([C@@H](C)Nc2nc(C)nc3cc(OC)c(OC)cc23)c1,1.09,2.52
Cn1cc(C2=C(c3ccc(N)cc3)C(=O)NC2=O)c2ccccc21,> 25,> 25
Cc1cc(Cl)cc(OCCn2cc(F)cn2)c1-c1nc(N)nc2c1CN(C(=O)NCC(C)(F)F)C2,0.144,> 100
COc1ccc(/C=C\[N+](=O)[O-])cc1OC,3.55,15.7
CCN(CC)CCC(CNc1ccnc2cc(Cl)ccc12)c1ccc(Cl)cc1 (stereo not drawn),0.436,1.63
COc1cccc(F)c1C(=O)c1cnc(NC2CCN(S(C)(=O)=O)CC2)nc1N,4.03,> 25
CCOC(=O)C(C#N)C1=CC(=O)C(=O)c2ccc(OC)cc21 (stereo not drawn),,> 100

Structure (SMILES),GI50 [µM],TGI [µM]
COc1cc(OCc2cccc(-c3ccc(C(O)c4nccs4)cc3)c2C)cc(OC)c1C=O (stereo not drawn),1.69,13.7
COC(=O)c1ccc2c(c1)nc(NC(=O)c1ccccc1)n2CCCc1ccccc1,8.86,> 100
Cc1ccc(S(=O)(=O)Nc2ccccc2C=O)cc1,,52.4
O=C(O)COc1ccc2c(=O)c3sc4c(=O)c5ccccc5c(=O)c4c3c(=O)c2c1,23,46.5
O=C(Nc1ccc2ncccc2c1)Nc1ccc2ncccc2c1,,> 100
CC1(C)S[C@@H]2[C@H](NC(=O)C3(N)CCCCC3)C(=O)N2[C@H]1C(=O)O,,> 100
NC(=O)/C=C/C(=O)c1c(Cl)cccc1Cl,1.22,2.92
CC1(C)N=C(N)N=C(N)N1c1ccc(CCCCc2ccc(Cl)cc2S(=O)(=O)F)c(Cl)c1,5.82,25.7
O=C(Nc1ccc(Nc2ccncc2)cc1)c1ccc([N+](=O)[O-])cc1,11.2,31.3
C(=NCCN1CCOCC1)=NC1CCCCC1,,> 100
COc1ccccc1/C=N\N/C(N)=N\N=C\c1ccccc1OC,0.524,8.89
CC[As](CC)SC[C@H](C)C(=O)N1CCC[C@H]1C(=O)O,0.113,0.396
NC(N)=N/N=C/c1c(-c2ccsc2)nc2sccn12,10.8,22.7
Oc1ccc(Nc2ncnc3c2sc2ncccc23)cc1,> 100,> 100
COc1cccc(CC(C)=C(c2ccc(OCCN(C)C)cc2)c2ccc(OCCN(C)C)cc2)c1,5.43,10.3
Cc1ccc(SC2c3ccc(C)cc3Oc3nc(N)c(C#N)c(N)c32)cc1 (stereo not drawn),1.95,3.39

# Tested on: U251 CNS
# Assay: growth of human tumour cells (NCI), 48 h
Structure (SMILES),GI50 [µM],TGI [µM]
COc1ccc(Sc2[nH]c(C(C)=O)c3ccccc23)cc1,11.9,25.1
C#CCOc1cccc(-c2ncc3cc(NC(=O)CCl)ccc3n2)c1,1.78,3.23
COc1ccc(OC)c2c1[nH]c(=O)c1c3ccccc3cn21,1.37,2.76
CSc1nc(=O)n(CCC#N)nc1SC,,> 100
COc1cc(Nc2ncccc2C(=O)NCc2cn(Cc3cccc(Oc4ccccc4)c3)nn2)cc(OC)c1,4.58,> 100
Nc1ccc([N+](=O)[O-])cc1N=C/C=C/c1ccccc1,6.16,77.5
COc1cc(-c2oc(=O)ccc2C#Cc2ccccn2)cc(OC)c1OC,3.51,> 86
COc1cccc(C2CC(C)(O)Oc3cc4c(cc32)OCO4)c1O (stereo not drawn),,70.4
CNCc1ccccc1-c1csc([C@@H](C)Nc2nc(C)nc3cc(OC)c(OC)cc23)c1,1.48,3
Cn1cc(C2=C(c3ccc(N)cc3)C(=O)NC2=O)c2ccccc21,11.4,> 25
Cc1cc(Cl)cc(OCCn2cc(F)cn2)c1-c1nc(N)nc2c1CN(C(=O)NCC(C)(F)F)C2,0.114,> 100
COc1ccc(/C=C\[N+](=O)[O-])cc1OC,1.5,4.72
CCN(CC)CCC(CNc1ccnc2cc(Cl)ccc12)c1ccc(Cl)cc1 (stereo not drawn),1.37,2.85
COc1cccc(F)c1C(=O)c1cnc(NC2CCN(S(C)(=O)=O)CC2)nc1N,2.6,> 25
CCOC(=O)C(C#N)C1=CC(=O)C(=O)c2ccc(OC)cc21 (stereo not drawn),,72.5
COc1cc(OCc2cccc(-c3ccc(C(O)c4nccs4)cc3)c2C)cc(OC)c1C=O (stereo not drawn),2.74,11.3

Structure (SMILES),GI50 [µM],TGI [µM]
COC(=O)c1ccc2c(c1)nc(NC(=O)c1ccccc1)n2CCCc1ccccc1,2.73,> 100
Cc1ccc(S(=O)(=O)Nc2ccccc2C=O)cc1,,30.2
O=C(O)COc1ccc2c(=O)c3sc4c(=O)c5ccccc5c(=O)c4c3c(=O)c2c1,13.7,32.8
O=C(Nc1ccc2ncccc2c1)Nc1ccc2ncccc2c1,,> 100
CC1(C)S[C@@H]2[C@H](NC(=O)C3(N)CCCCC3)C(=O)N2[C@H]1C(=O)O,,> 100
NC(=O)/C=C/C(=O)c1c(Cl)cccc1Cl,1.36,2.67
CC1(C)N=C(N)N=C(N)N1c1ccc(CCCCc2ccc(Cl)cc2S(=O)(=O)F)c(Cl)c1,0.291,15.4
O=C(Nc1ccc(Nc2ccncc2)cc1)c1ccc([N+](=O)[O-])cc1,2.49,7.12
C(=NCCN1CCOCC1)=NC1CCCCC1,,> 100
COc1ccccc1/C=N\N/C(N)=N\N=C\c1ccccc1OC,1.02,> 39.9
CC[As](CC)SC[C@H](C)C(=O)N1CCC[C@H]1C(=O)O,0.197,0.576
NC(N)=N/N=C/c1c(-c2ccsc2)nc2sccn12,15.8,30
Oc1ccc(Nc2ncnc3c2sc2ncccc23)cc1,0.0262,> 100
COc1cccc(CC(C)=C(c2ccc(OCCN(C)C)cc2)c2ccc(OCCN(C)C)cc2)c1,0.903,2.42
NC(=S)N/N=C/C(=O)O,> 100,> 100
Cc1ccc(SC2c3ccc(C)cc3Oc3nc(N)c(C#N)c(N)c32)cc1 (stereo not drawn),1.69,3.08
